Here are results for 2 molecules from US20130085106A1, “METHODS AND FORMULATIONS FOR OXYTOCIN TREATMENT OF SUBSTANCE USE, PSYCHIATRIC AND OTHER DISORDERS” (THE UNIVERSITY OF NORTH CAROLINA AT CHAPEL HILL, priority 2010, published 2013).

Ends that are not written are not given here.

Data set [1] deals with subjects with schizophrenia. In words: Expanded two-week intranasal oxytocin study in schizophrenia, 25 subjects (Example 8). Format: in vivo, human. The conditions noted are these: for Brüne 2nd false belief, M / Brüne 3nd false belief, M / Brüne deception, M / PANSS general score, M / PANSS negative score, M / PANSS positive score, M / PANSS social items mean (suspiciousness, hostility, social withdrawal passive/active, uncooperativeness), M / PANSS total score, M / Paranoia Scale, M / Trustworthiness task (ratings of untrustworthy faces), M: N = 14. The text has this:
(§1) This was a randomized, double blind, placebo-controlled 2-week treatment trial. Screening of each subject included a review of psychiatric and medical history, physical examination, an ECG, and blood and urine collection for standard laboratory tests. Within 1 week after screening, baseline social cognition measures were obtained followed by psychiatric ratings. Daily intranasal treatments were initiated after baseline assessments. Social cognition measures and psychiatric ratings were repeated beginning 50 minutes after the AM dose of study medication on treatment day 14. The social cognition instruments were the Brüne Theory of Mind Picture Stories Task (Brüne, (2003) Social cognition and behaviour in schizophrenia. In Brüne, Ribbert, Schiefenhövel (eds.) The social brain-evolution and pathology. John Wiley & Sons; Chichester, pp. 277-313) and the Trustworthiness Task (Adolphs et al., Nature 393: 470-474 (1998)). Psychiatric measures included the Positive and Negative Symptom Scale (PANSS) (Kay et al., Schizophr. Bull. 13: 261-276 (1987))) and the Paranoia Scale (Fenigstein & Vanable, J. Pers. Soc. Psych. 62: 129-138 (1992))). The first 10 subjects were studied as inpatients on a clinical research unit and the last 10 subjects were studied in an outpatient research clinic. Blood and urine laboratory tests, ECGs and body weights were obtained at screening and treatment day 14 in all subjects and also on treatment days 3 and 7 in inpatients.
(§2) Subjects remained on their pre-study medication regimen and doses throughout the treatment trial. They self-administered intranasal study drug twice daily; before breakfast and before dinner. Each dose consisted of six 0.1 ml insufflations (alternating between the left and right nostril) of oxytocin spray containing approximately 24 international units of oxytocin (SYNTOCINON® Spray, Novartis) or placebo. Outpatient compliance with test treatments was monitored by weighing spray vials before they were dispensed and after the morning dose on treatment day 14.
We have expanded our double blind, placebo-controlled pilot study described in Example 7 to include 25 subjects with schizophrenia in which we compared the effects of 14 days of twice daily intranasal oxytocin (24 IU/dose, N=14) vs. placebo (N=11) administration on PANSS (Positive and Negative Symptom Scale) total and PANSS item scores, subject self-ratings on the Paranoia Scale and performance on social cognition tests (the Brüne Theory of Mind Picture Stories Task and the Trustworthiness Task). As in the smaller study, all subjects' symptoms and psychotropic medication regimens were stable for ≧1 month prior to the treatment trial. Medication doses remained the same during the study period.
Because of our interest in oxytocin effects on social function in schizophrenia, we focused our statistical analysis on an a priori subset of PANSS items: P6 (suspiciousness/persecution [paranoia]), P7 (hostility), N4 (passive/apathetic social withdrawal), G8 (uncooperativeness) and G16 (active social avoidance). These items were used as inclusion criteria for this study (see description in Example 7). Values on these items are highly correlated in our sample (Cronbach's alpha=0.84).

For data set [2], the system named is alcohol dependent patients. In words: Double-blind, placebo controlled trial of twice daily intranasal oxytocin for alcohol withdrawal (Example 2). It counts as in vivo, human. An excerpt: This is a double-blind, placebo controlled comparison of the efficacy of twice daily intranasal administration of oxytocin and placebo (saline) in reducing alcohol withdrawal symptoms, the number of bouts of withdrawal during which symptoms are of sufficient magnitude requiring lorazepam treatment (see definitions below) and the amount of lorazepam required to resolve withdrawal bouts. Treatment group assignment are random within each sex. Subjects are patients admitted to UNC Hospitals or the UNC CTRC for medical detoxification. Each treatment group is composed of up to 40 subjects. The study statistician constructs a randomization plan to randomize 80 subjects to 2 groups of 40 subjects each with a blocksize of 4. This is a permuted blocksize as this is a blind study.
Informed consent is obtained the morning after admission to the UNC Hospitals medical units or before the outpatient screening evaluation before admission to the UNC CTRC. After consent is obtained, subjects are randomly assigned to a treatment group (oxytocin or placebo). Prior to receiving their first intranasal treatment, an ECG is obtained and blood drawn to obtain serum for assay of cytokine and allopregnanolone concentrations. Subjects also rate their symptoms using the Alcohol Withdrawal Symptom Checklist (AWSC, Pittman et al., Alcohol Clin. Exp. Res. 31: 612-618 (2007)) prior to receiving their first test dose. These procedures are done/overseen by research nurses or physicians. Subjects usually receive their first intranasal test dose between 1000 and 1200 hours, which consists of 6 insufflations of SYNTOCINON® Spray (approximately 24 IU) or placebo, with each insufflation given 30 seconds apart and alternating between nostrils. Test doses taken again at 1700 hr later that day (Admission Day 1) and at 0900 and 1700 hr on Admission Days 2 and 3. Oxytocin test treatments are administered from 5 ml intranasal spray vials designed to deliver 0.1 ml metered volume per insufflation. The placebo treatments are administered from 60 ml intranasal spray vials (each containing 30 ml of solution) also designed to deliver 0.1 ml metered volume per insufflation. Vials containing oxytocin and placebo spray are blind labeled by the UNC Investigational Drug Service. Research nurses or physicians oversee subject self-administration of all intranasal test doses. After enrollment on Admission day 1 and in the morning on Admission days 2 and 3, subjects are given multiple copies of the AWSC questionnaire and requested to complete one each time the unit nurses do CIWA ratings. These questionnaires are retrieved by research staff the following morning. Shortly after the morning test dose on Admission days 2 and 3, subjects complete the Alcohol Craving Visual Analog Scales (ACVAS), the Penn Alcohol Craving Scale (PACS), and the Profile of Mood States (McNair et al., (1971) EDITS manual for the profile of mood states. San Diego, Calif. Educational and Industrial Testing Service). In addition, a consumption diary is administered and given to the subject to quantify the amount of alcohol participants have been consuming prior to admission in the study. On Days 2 and 3, research nurses also draw (and subsequently process) blood serum samples to assay cytokine and allopregnanolone concentrations shortly after the morning test dose. Additional blood is drawn after the morning test dose on admission day 2 to obtain serum for tests to be run (magnesium, Cl, Ca, Na, K, BUN, creatinine, and GGT). Another ECG is also obtained shortly after the morning test treatment on Admission day 2. Research staff retrieves on a daily basis CIWA ratings and vital sign measurements obtained on each subject from their electronic medical record.
In all subjects, lorazepam doses are administered PO or IV (if subjects cannot take medication PO) whenever CIWA ratings are ≧12. CIWA ratings are obtained 1 hr after the initial dose of lorazepam and another dose administered if CIWA ratings ≧10. […]

The test system of data set [3] is patients with paranoid or undifferentiated schizophrenia. In words: Randomized, double blind, placebo-controlled 2-week intranasal oxytocin trial in schizophrenia (Example 7). It counts as in vivo, human.
Text: Twenty-three subjects were initially enrolled; 2 dropped out before randomization to treatment and 1 dropped out early because they developed an upper respiratory infection; the remaining 20 completed the protocol and constitute our study sample. Inclusion criteria were: 18-55 years of age, DSM-IV diagnosis of paranoid or undifferentiated schizophrenia ≧1 year, PANSS total score ≧60, PANSS suspiciousness/persecutory item score ≧4 or 3 on this item and ≧3 on at least one other social behavior-relevant PANSS item (hostility, passive/apathetic social withdrawal, uncooperativeness, active social withdrawal), treatment with one or more standard antipsychotic medications, stability of medication doses and symptoms ≧1 month.
as §1, §2
All dependent variables were examined for normality and skewness prior to analyses. We compared oxytocin and placebo group means using an unpaired t test for the following baseline variables: demographic, psychiatric history and diagnosis, inpatient versus outpatient status, social cognition and psychiatric measures. We performed a paired t test within each treatment group examining changes from baseline to two weeks on the following variables: biological (laboratory test values, vital signs), social cognition measures (Brüne Task, Trustworthiness Task), and psychiatric measures (PANSS total and subscales, Paranoia Scale). To compare the treatment groups over time on social cognition and psychiatric variables, we used analysis of covariance controlling for the baseline measure of the dependent variable.

The conditions of data set [4]: Burbach et al., Eur. J. Pharmacol. 94: 125-131 (1983); cited from earlier work.
Setting [5] is: ANCOVA controlling for baseline, 14-day treatment.

For the molecule `CC[C@H](C)[C@@H]1NC(=O)[C@H](Cc2ccc(O)cc2)NC(=O)[C@@H](N)CSSC[C@@H](C(=O)N2CCC[C@H]2C(=O)N[C@@H](CC(C)C)C(=O)NCC(N)=O)NC(=O)[C@H](CC(N)=O)NC(=O)[C@H](CCC(N)=O)NC1=O` [Oxytocin, oxytocin], in data set [1] (ANOVA, F=3.10, p=0.0923), the “declines in PANSS positive symptom subscale scores compared to the Placebo group” value is “trends toward significantly greater declines”. The “declines in PANSS social items mean scores compared to the Placebo group” value in data set [1] (ANOVA, F=3.15, p=0.0898) was “trends toward significantly greater declines”. Further, in data set [1] (ANOVA, F=4.29, p=0.05), the “decline in PANSS total score compared to the Placebo group” value is reported as “significantly greater decline”. For the same molecule, in data set [1] (Baseline), the “Brüne 2nd false belief, M” value turned out to be 1.93; the “Brüne 3nd false belief, M” value worked out at 1.93; the “Brüne deception, M” value is on record as 2.43; the “PANSS general score, M” value is listed as 38.21. For the same molecule, in data set [1] (Baseline), the “PANSS negative score, M” value is 20.36; the “PANSS positive score, M” value is recorded as 19.79; the “PANSS social items mean (suspiciousness, hostility, social withdrawal passive/active, uncooperativeness), M” value amounted to 2.91; the “PANSS total score, M” value came out at 79.00. Further, in data set [1] (Baseline), the “Paranoia Scale, M” value was 48.00 and the “Trustworthiness task (ratings of untrustworthy faces), M” value is −15.71. Further, the “PANSS total score, M” value in data set [1] (Tx Day 14, 24 IU/dose intranasal twice daily) is listed as 69.21. For the same molecule, in data set [1] (Tx Day 14), the “Brüne 2nd false belief, M” value is recorded as 2.29; the “Brüne 3nd false belief, M” value stood at 2.43; the “Brüne deception, M” value was 2.86; the “PANSS general score, M” value is 34.07. Besides, in data set [1] (Tx Day 14), the “PANSS negative score, M” value is 18.00; the “PANSS positive score, M” value was 17.14; the “PANSS social items mean (suspiciousness, hostility, social withdrawal passive/active, uncooperativeness), M” value amounted to 2.39; the “Paranoia Scale, M” value was determined as 45.00. In data set [1] (Tx Day 14), the “Trustworthiness task (ratings of untrustworthy faces), M” value is listed as −10.36. Further, the adverse events result in data set [2] (3 days of protocol, all 10 subjects) was “no unexpected adverse events”. Further, the “Total lorazepam (mg) required to control withdrawal symptoms, Mean” value in data set [2] (3 days of protocol, intranasal approx. 24 IU twice daily, N=6) came to 2.33 mg. Besides, the “Mean CIWA Day 1” value in data set [2] (Day 1, intranasal approx. 24 IU twice daily, N=6) amounted to 2.40. For the same molecule, in data set [2] (Day 1, self-rating, N=6), the “Mean AWSC Day 1” value is 6.17. In addition, the “Mean ACVAS Day 2” value in data set [2] (Day 2, 100 mm Alcohol Craving Visual Analog Scale, N=6) came to 33.83. For the same molecule, in data set [2] (Day 2, N=6), the “Mean CIWA Day 2” value amounted to 0.81. Besides, in data set [2] (Day 2, Penn Alcohol Craving Scale, N=6), the “Mean PACS Day 2” value is listed as 13.33. In data set [2] (Day 2, self-rating, N=6), the “Mean AWSC Day 2” value is given as 5.40. In data set [2] (Day 3, 100 mm Alcohol Craving Visual Analog Scale, N=6), the “Mean ACVAS Day 3” value worked out at 11.23. For the same molecule, in data set [2] (Day 3, N=6), the “Mean CIWA Day 3” value is 1.52. Also, the “Mean PACS Day 3” value in data set [2] (Day 3, Penn Alcohol Craving Scale, N=6) was 9.33. The “Mean AWSC Day 3” value in data set [2] (Day 3, self-rating, N=6) turned out to be 3.78. Also, the “subjects that required no lorazepam treatment at all” value in data set [2] (oxytocin treatment group, 3-day detoxification) is given as 4 of the 6. In data set [3] (setting [5]), the “PANSS general subscale scores, LS mean” value is recorded as 34.34 and the “PANSS total scores, Least squared (LS) mean” value worked out at 70.56. In data set [3] (ANCOVA, oxytocin vs placebo), the “group differences in change over the treatment period for other PANSS or social cognition variables” value is “no group differences”. In addition, in data set [3] (ANCOVA, F=3.78, p=0.069), the “decline in PANSS general subscale scores compared to placebo” value is reported as “trend toward a significantly greater decline”. In addition, the “decline in PANSS total scores compared to the placebo group” value in data set [3] (ANCOVA, F=4.60, p=0.047) is recorded as “significantly greater decline”. For the same molecule, the “change in other Brüne Task measures (second order belief, third order false belief, recognition of cheating)” value in data set [3] (baseline to treatment day 14) is reported as “no changes that approached significance”.

“oxytocin fragment 4-9: biologically active fragment of oxytocin, reported to be more potent than the full-length molecule (QNCPLG; ends and bridges not checked; UniProt P01178 23-28, looked up, fragment)”: in data set [4], the “potency relative to the full-length molecule” value is “more potent than the full-length molecule”.
